The values that follow come from US9034960B2, “Antidrift composition” (Momentive Performance Materials Inc., priority 2012, dated 2015).

Series [1] can be described thus: Spreading/wetting: diameter of a 10 microliter drop on polystyrene dish. Format: physicochemical. To be noted: Table 3; aqueous herbicidal spray composition. The method, then: The spreading ability of the various superspreaders utilized herein was determined by depositing a single drop (10 microliters) of solution onto a clean, flat polystyrene dish. The polystyrene surfaces were cleaned by rinsing with isopropanol and then with deionized water. The dishes were then dried with dry nitrogen gas. The diameters of the resulting drops were then measured. Each solution was tested 2 to 4 times and the average diameter was calculated.

Series [2] relates to velvetleaf. The experiment in a line: Herbicidal performance of glyphosate spray compositions sprayed on velvetleaf. Format: in vivo. To be noted: 1% glyphosate IPA salt. The protocol: Urea inclusion complexes containing PAM-PAA copolymer, sodium salt (PAM-PAA-Na) (Zetag 4100, BASF), both without and with Silicone A superspreader, were made from molten urea as was a comparison urea inclusion complex containing PAM and Silicone A. Aqueous herbicidal spray compositions were prepared containing 0.75% of these urea inclusion complexes and 1% glyphosate isopropylamine salt (“[…]”) herbicide and evaluated for reduction of drift, increased spreading and herbicidal performance when sprayed on velvetleaf.
A solution of 0.042% Silicone A and 1% glyphosate IPA salt (Example 26) was used as a control as was a plain 1% glyphosate IPA salt solution (Example 27).

`CC(C)N.O=C(O)CNCP(=O)(O)O` [Example 27, glyphosate isopropylamine salt]: the “Drop Spread Diameter” value in series [1] was 4.8 mm. Also, the “% Control after 1 week” value in series [2] (after 1 week) is 25%. Moreover, the “% Control after 2 weeks” value in series [2] (after 2 weeks) is 81%.
